What was measured:
human CYP4A11 = human CYP4A11 (Homo sapiens (Human), UniProt Q02928); assay: Inhibition test against 20-HETE producing enzyme CYP4A11 (luciferine derivative, luminescence); type: biochemical
Outline: (§1)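 IC50 derived from luminescence after 60 min at room temperature with membrane fractions of E. coli expressing each human CYP (100 μg/mL protein). For CYP4A11, 60 μM luciferin derivative in 100 mM Tris-HCl pH 7.5 with NADPH-regenerating system; for CYP4F2, 2.5 μM substrate, 1 mM NADPH, 50 mM KPO4 pH 7.4.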

human CYP4F2 = human CYP4F2 (Homo sapiens (Human), UniProt P78329); assay: Inhibition test against 20-HETE producing enzyme CYP4F2 (luciferine derivative, luminescence); type: biochemical
Outline: as §1

[1] = E. coli membrane fraction expressing human CYP4A11, 60 μM luciferine derivative, room temperature 60 minutes
[2] = E. coli membrane fraction expressing human CYP4F2, 2.5 μM luciferine derivative, room temperature 60 minutes
[3] = human CYP4A11, luciferine derivative, luminescence
[4] = human CYP4F2, luciferine derivative, luminescence

Chain of human CYP4F2 (P78329 5-520): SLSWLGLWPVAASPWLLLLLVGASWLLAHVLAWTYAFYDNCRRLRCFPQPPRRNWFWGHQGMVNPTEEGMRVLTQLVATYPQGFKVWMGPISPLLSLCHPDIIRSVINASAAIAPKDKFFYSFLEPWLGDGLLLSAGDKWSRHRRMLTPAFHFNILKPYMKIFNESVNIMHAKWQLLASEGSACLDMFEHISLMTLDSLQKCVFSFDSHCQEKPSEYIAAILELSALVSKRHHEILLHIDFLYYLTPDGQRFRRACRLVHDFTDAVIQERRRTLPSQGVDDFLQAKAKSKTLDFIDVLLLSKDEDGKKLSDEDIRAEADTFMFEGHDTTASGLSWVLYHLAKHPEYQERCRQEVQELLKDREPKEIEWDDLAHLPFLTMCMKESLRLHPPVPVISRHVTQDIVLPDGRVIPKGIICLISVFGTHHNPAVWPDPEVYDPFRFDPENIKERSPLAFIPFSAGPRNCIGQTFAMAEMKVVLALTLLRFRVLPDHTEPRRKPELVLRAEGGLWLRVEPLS
Chain of human CYP4A11 (Q02928 5-519): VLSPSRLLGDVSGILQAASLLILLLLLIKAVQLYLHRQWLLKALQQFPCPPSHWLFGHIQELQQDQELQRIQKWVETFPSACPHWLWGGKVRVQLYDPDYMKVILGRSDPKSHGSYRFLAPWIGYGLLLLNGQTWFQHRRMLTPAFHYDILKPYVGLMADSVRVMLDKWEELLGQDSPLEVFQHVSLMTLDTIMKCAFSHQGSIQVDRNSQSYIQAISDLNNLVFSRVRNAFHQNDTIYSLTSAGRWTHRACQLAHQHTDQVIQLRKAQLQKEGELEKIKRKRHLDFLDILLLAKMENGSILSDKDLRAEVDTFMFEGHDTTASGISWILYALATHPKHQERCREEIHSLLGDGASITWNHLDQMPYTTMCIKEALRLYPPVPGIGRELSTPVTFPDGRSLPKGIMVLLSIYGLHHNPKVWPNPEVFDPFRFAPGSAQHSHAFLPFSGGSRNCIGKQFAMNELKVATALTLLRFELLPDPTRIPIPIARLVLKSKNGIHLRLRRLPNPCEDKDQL

Row | SMILES | IC50 (human CYP4A11; [1]) | IC50 (human CYP4F2; [2]) | IC50 (human CYP4A11; [3]) | IC50 (human CYP4F2; [4])
1 | CC(C)(CCNC(=O)N1CCC[C@@H](COc2ccc(-c3ccn[nH]3)nc2)C1)C(=O)O [Example 55-1, 2,2-Dimethyl-4-[[oxo-[(3R)-3-[[6-(1H-pyrazol-5-yl)-3-pyridinyl]oxymethyl]-1-piperidinyl]methyl]amino]butanoic Acid] | 200 nM | 6500 nM | – | –
2 | CC(C)S(=O)(=O)Nc1cccc(COc2ccc(-c3ccn[nH]3)nc2)c1 [Example 56-1, N-[3-[[6-(1H-Pyrazol-5-yl)-3-pyridinyl]oxymethyl]phenyl]-2-propanesulfonamide] | 140 nM | 450 nM | – | –
3 | CS(=O)(=O)N[C@H]1CC[C@@H](Oc2ccc(-c3ccn[nH]3)nc2)CC1 [Example 57-2] | 6700 nM | 7300 nM | – | –
4 | CN([C@H]1CC[C@H](Oc2ccc(-c3ccn[nH]3)nc2)CC1)S(C)(=O)=O [Example 57-3] | 2000 nM | 2000 nM | – | –
5 | CS(=O)(=O)NCC12CC(COc3ccc(-c4ccn[nH]4)nc3)(C1)C2 [Example 58-1, N-[[3-[[6-(1H-Pyrazol-5-yl)-3-pyridinyl]oxymethyl]-1-bicyclo[1.1.1]pentanyl]methyl]methanesulfonamide] | 580 nM | 120 nM | – | –
6 | CN(CC12CC(COc3ccc(-c4ccn[nH]4)nc3)(C1)C2)S(C)(=O)=O [Example 58-2, N-Methyl-N-[[3-[[6-(1H-pyrazol-5-yl)-3-pyridinyl]oxymethyl]-1-bicyclo[1.1.1]pentanyl]methyl]methanesulfonamide] | 240 nM | 5.1 nM | – | –
7 | OC(Cc1cccc(COc2ccc(-c3ccn[nH]3)nc2)c1)C(F)(F)F (stereo not shown) [Example 59-1, 1,1,1-Trifluoro-3-[3-[[6-(1H-pyrazol-5-yl)-3-pyridinyl]oxymethyl]phenyl]-2-propanol] | 130 nM | 10 nM | – | –
8 | OC(c1ccc(COc2ccc(-c3ccn[nH]3)nc2)cc1)C(F)F (stereo not shown) [Example 59-2, 2,2-Difluoro-1-[4-[[6-(1H-pyrazol-5-yl)-3-pyridinyl]oxymethyl]phenyl]ethanol] | 1800 nM | 100 nM | – | –
9 | OC(c1ccc(COc2ccc(-c3ccn[nH]3)nc2)cc1)C(F)(F)F (stereo not shown) [Example 59-3] | 1500 nM | 41 nM | – | –
10 | O=C(O)C(F)(F)c1cccc(COc2ccc(-c3ccn[nH]3)nc2)c1 [Example 60-1, 2,2-Difluoro-2-[3-[[6-(1H-pyrazol-5-yl)-3-pyridinyl]oxymethyl]phenyl]acetic Acid] | 8.2 nM | 37000 nM | – | –
11 | OCC(F)(F)c1cccc(COc2ccc(-c3ccn[nH]3)nc2)c1 [Example 60-2, 2,2-Difluoro-2-[3-[[6-(1H-pyrazol-5-yl)-3-pyridinyl]oxymethyl]phenyl]ethanol] | 29 nM | 130 nM | – | –
12 | CS(=O)(=O)NC(=O)NCCCCOc1ccc(-c2ccn[nH]2)nc1 [Example 61-1, 1-Methylsulfonyl-3-[4-[[6-(1-H-pyrazol-5-yl)-3-pyridinyl]oxy]butyl]urea] | 72 nM | 8000 nM | – | –
13 | O=C1CN(CCCCOc2ccc(-c3ccn[nH]3)nc2)C(=O)N1 [Example 61-2, 1-[4-[[6-(1-H-pyrazol-5-yl)-3-pyridinyl]oxy]butyl]imidazolidine-2,4-dione] | 750 nM | 280 nM | – | –
14 | c1cc(-c2ccc(OCCCCCc3nnn[nH]3)cn2)[nH]n1 [Example 62-1, 2-(1H-Pyrazol-5-yl)-5-[5-(1H-tetrazol-5-yl)pentoxy]pyridine] | 28 nM | 3500 nM | – | –
15 | O=c1[nH]c(CCCCCOc2ccc(-c3ccn[nH]3)nc2)no1 [Example 62-2, 3-[5-[[6-(1H-Pyrazol-5-yl)-3-pyridinyl]oxy]pentyl]-4H-1,2,4-oxadiazol-5-one] | 27 nM | 1900 nM | – | –
16 | O=C1NC(=O)C(CCCCOc2ccc(-c3ccn[nH]3)nc2)O1 (stereo not shown) [Example 63-1, 5-[4-[[6-(1H-Pyrazol-5-yl)-3-pyridinyl]oxy]butyl]oxazolidine-2,4-dione] | 31 nM | 12000 nM | – | –
17 | Oc1cc(CCCCOc2ccc(-c3ccn[nH]3)nc2)on1 [Example 64-1, 5-[4-[[6-(1H-Pyrazol-5-yl)-3-pyridinyl]oxy]butyl]-3-isoxazole] | 41 nM | 780 nM | – | –
18 | O=S(=O)(NCc1cccc(COc2ccc(-c3ccn[nH]3)nc2)c1)C(F)(F)F [Example 65-1, 1,1,1-Trifluoro-N-[[3-[[6-(1-H-pyrazol-5-yl)-3-pyridinyl]oxymethyl]phenyl]methyl]methanesulfonamide] | 8.1 nM | 63 nM | – | –
19 | CS(=O)(=O)c1cc(O)cc(COc2ccc(-c3[nH]ncc3Cl)nc2)c1 [Example 66-1, 3-[[6-(4-Chloro-1H-pyrazol-5-yl)-3-pyridinyl]oxymethyl]-5-methylsulfonylphenol] | 33 nM | 16 nM | – | –
20 | NC(=O)c1cc(COc2ccc(-c3[nH]ncc3C(F)F)nc2)ccn1 [Example 67-1, 4-[[6-[4-(Difluoromethyl)-1H-pyrazol-5-yl]-3-pyridinyl]oxymethyl]-2-pyridinecarboxamide] | > 50000 nM | 2700 nM | – | –
21 | O=C(O)[C@@H]1CCc2ccc(COc3ccc(-c4ccn[nH]4)nc3)cc2C1 [Example 69-1-1] | – | – | 21 nM | 240 nM
22 | O=C(O)[C@H]1CCc2ccc(COc3ccc(-c4ccn[nH]4)nc3)cc2C1 [Example 69-1-2] | – | – | 25 nM | 200 nM
23 | O=C(O)[C@@H]1COc2ccc(COc3ccc(-c4ccn[nH]4)nc3)cc2C1 [Example 69-2-1] | – | – | 37 nM | 600 nM
24 | O=C(O)[C@H]1COc2ccc(COc3ccc(-c4ccn[nH]4)nc3)cc2C1 [Example 69-2-2] | – | – | 36 nM | 1100 nM

Row | SMILES | IC50 (human CYP4A11; [1]) | IC50 (human CYP4F2; [2]) | IC50 (human CYP4A11; [3]) | IC50 (human CYP4F2; [4])
25 | O=C(O)[C@@H]1CCc2ccc(COc3ccc(-c4ccn[nH]4)nc3)cc2O1 [Example 69-3-1] | – | – | 23 nM | 110 nM
26 | O=C(O)[C@H]1CCc2ccc(COc3ccc(-c4ccn[nH]4)nc3)cc2O1 [Example 69-3-2] | – | – | 220 nM | 300 nM
27 | O=C(O)[C@@H]1CCCN(S(=O)(=O)c2cccc(COc3ccc(-c4ccn[nH]4)nc3)c2)C1 [Example 69-4-1] | – | – | 27 nM | 86 nM
28 | O=C(O)[C@H]1CCCN(S(=O)(=O)c2cccc(COc3ccc(-c4ccn[nH]4)nc3)c2)C1 [Example 69-4-2] | – | – | 40 nM | 670 nM
29 | O=C(O)/C=C/c1cccc(COc2ccc(-c3ccn[nH]3)nc2)c1F [Example 70-1, (E)-3-[2-Fluoro-3-[[6-(1H-pyrazol-5-yl)pyridin-3-yl]oxymethyl]phenyl]prop-2-enoic Acid] | – | – | 27 nM | 49 nM
30 | O=C(O)CCc1cccc(COc2ccc(-c3ccn[nH]3)nc2)c1F [Example 70-2, 3-[2-Fluoro-3-[[6-(1H-pyrazol-5-yl)pyridin-3-yl]oxymethyl]phenyl]propanoic Acid] | – | – | 28 nM | 1100 nM
31 | O=C(O)C1CC1c1cccc(COc2ccc(-c3ccn[nH]3)nc2)c1F (stereo not shown) [Example 70-3, 2-[2-Fluoro-3-[[6-(1H-pyrazol-5-yl)pyridin-3-yl]oxymethyl]phenyl]cyclopropane-1-carboxylic Acid] | – | – | 28 nM | 280 nM
32 | O=C(O)/C=C/c1cccc(CCOc2ccc(-c3ccn[nH]3)nc2)c1 [Example 70-4] | – | – | 150 nM | 56 nM
33 | O=C(O)/C=C/c1ccc(CCOc2ccc(-c3ccn[nH]3)nc2)cc1F [Example 70-5] | – | – | 43 nM | 27 nM
34 | O=C(O)/C=C/c1ccc(CCOc2ccc(-c3ccn[nH]3)nc2)cc1 [Example 70-6] | – | – | 76 nM | 47 nM
35 | O=C(O)C1CC1c1ccc(CCOc2ccc(-c3ccn[nH]3)nc2)cc1F (stereo not shown) [Example 70-8] | – | – | 130 nM | 120 nM
36 | O=C(O)C1CC1c1ccc(CCOc2ccc(-c3ccn[nH]3)nc2)cc1 (stereo not shown) [Example 70-9] | – | – | 210 nM | 200 nM
37 | O=C(O)[C@H]1C[C@@H]1c1ccc(CCOc2ccc(-c3ccn[nH]3)nc2)cc1 [Example 70-10-2] | – | – | 450 nM | 340 nM
38 | O=C(O)C1CC1c1ccc(COc2ccc(-c3ccn[nH]3)nc2)cc1F (stereo not shown) [Example 70-11, 2-[2-Fluoro-4-[[6-(1H-pyrazol-5-yl)pyridin-3-yl]oxymethyl]phenyl]cyclopropane-1-carboxylic Acid] | – | – | 43 nM | 330 nM
39 | CCC(OCCCCCCCOc1ccc(-c2ccn[nH]2)nc1)C(=O)O (stereo not shown) [Example 71-1, 2-[7-[6-(1H-Pyrazol-5-yl)pyridin-3-yl]oxyheptoxy]butanoic Acid] | – | – | 110 nM | 140 nM
40 | CC[C@@H](OCCCCCCCOc1ccc(-c2ccn[nH]2)nc1)C(=O)O [Example 71-2-1] | – | – | 170 nM | 300 nM
41 | CC[C@H](OCCCCCCCOc1ccc(-c2ccn[nH]2)nc1)C(=O)O [Example 71-2-2] | – | – | 87 nM | 90 nM
42 | O=C(O)COCCCCCCCOc1ccc(-c2ccn[nH]2)nc1 [Example 71-3] | – | – | 230 nM | 320 nM
43 | CC(OCCCCCCCOc1ccc(-c2ccn[nH]2)nc1)C(=O)O (stereo not shown) [Example 71-4] | – | – | 270 nM | 200 nM
44 | O=C(O)C1(OCCCCCCCOc2ccc(-c3ccn[nH]3)nc2)CC1 [Example 71-5] | – | – | 96 nM | 39 nM
45 | O=C(O)C1CCc2cc(CCOc3ccc(-c4ccn[nH]4)nc3)ccc2O1 (stereo not shown) [Example 71-7, 6-[2-[6-(1H-Pyrazol-5-yl)pyridin-3-yl]oxyethyl]-3,4-dihydro-2H-chromene-2-carboxylic Acid] | – | – | 82 nM | 550 nM
46 | O=C(O)[C@@H]1CCc2cc(CCOc3ccc(-c4ccn[nH]4)nc3)ccc2O1 [Example 71-8-1] | – | – | 1000 nM | 430 nM
47 | O=C(O)[C@H]1CCc2cc(CCOc3ccc(-c4ccn[nH]4)nc3)ccc2O1 [Example 71-8-2] | – | – | 48 nM | 560 nM

Source: US11365192B2, “Pyridine compound substituted with azole” (TAISHO PHARMACEUTICAL CO., LTD., priority 2017, dated 2022)
